Test results taken from ChEMBL document CHEMBL1201862, “PubChem BioAssay data set” (2004).
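Cultured in 96-well plates, cells were exposed to test compound for 48 hours across five concentrations. GI50 marks 50% less growth.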 Active and inactive are the calls of the source. Rule as the data show it: active = GI50 up to about 1.1 µM and inactive = higher.

Legend:
Assay in all cases: NCI-60 cell line screen, 48 h
M14 = system: M14
UACC-257 = system: UACC-257
KM12 = system: KM12
HOP-92 = system: HOP-92
786-0 = system: 786-0
Hs-578T = system: Hs-578T
NCI-H23 = system: NCI-H23
OVCAR-4 = system: OVCAR-4
SF-295 = system: SF-295
U-251 = system: U-251
SNB-75 = system: SNB-75
HCT-15 = system: HCT-15
UO-31 = system: UO-31
NCI-H460 = system: NCI-H460
NCI-H522 = system: NCI-H522
RXF 393 = system: RXF 393
SK-MEL-5 = system: SK-MEL-5
TK-10 = system: TK-10
T47D = system: T47D

Row | SMILES | GI50 (M14) | GI50 (UACC-257) | GI50 (KM12) | GI50 (HOP-92) | GI50 (786-0) | GI50 (Hs-578T) | GI50 (NCI-H23) | GI50 (OVCAR-4) | GI50 (SF-295) | GI50 (U-251) | GI50 (SNB-75) | GI50 (HCT-15) | GI50 (UO-31) | GI50 (NCI-H460) | GI50 (NCI-H522) | GI50 (RXF 393) | GI50 (SK-MEL-5) | GI50 (TK-10) | GI50 (T47D)
1 | CCOC(=O)c1cc(-c2ccc(OC)cc2)c([N+](=O)[O-])n1C | > 10 µM (inactive) | > 10 µM (inactive) | > 10 µM (inactive) | > 10 µM (inactive) | > 10 µM (inactive) | > 10 µM (inactive) | > 10 µM (inactive) | > 10 µM (inactive) | > 10 µM (inactive) | > 10 µM (inactive) | > 10 µM (inactive) | > 10 µM | > 10 µM (inactive) | > 10 µM (inactive) | > 10 µM (inactive) | 2.13 µM (inactive) |  |  | 
2 | CCOC(=O)C1=C(C)N(c2ccc(C)cc2)C2(O)C=CC(O)=C3C(=O)c4ccccc4C(=O)C312 (centres undefined) | 36.6 µM (inactive) | 22.9 µM (inactive) | 35.6 µM (inactive) | 19.3 µM (inactive) | 33.9 µM (inactive) |  | 38.4 µM (inactive) | 25 µM (inactive) | 68.1 µM (inactive) | 39.7 µM (inactive) | 24.1 µM (inactive) | 22.8 µM | 17.7 µM (inactive) | 34.2 µM (inactive) | 16.1 µM (inactive) | 28.8 µM (inactive) | 19.7 µM (inactive) | 44 µM (inactive) | 
3 | c1ccc(C(c2ccccc2)c2ccncc2)cc1 | > 100 µM (inactive) | 61 µM (inactive) | > 100 µM (inactive) |  | > 100 µM (inactive) |  | > 100 µM (inactive) | > 100 µM (inactive) | > 100 µM (inactive) | > 100 µM (inactive) | 18 µM (inactive) | > 100 µM | 69.5 µM (inactive) | > 100 µM (inactive) |  |  | > 100 µM (inactive) | > 100 µM (inactive) | 
4 | CN(C)c1ccc(/C=C/C=c2/c3ccccc3n3c2cc(-c2ccccc2)[n+]3C)cc1 | 0.215 µM (active) | 0.182 µM (active) | 0.0598 µM (active) | 0.318 µM (active) | 0.252 µM (active) |  | 0.188 µM (active) | 0.414 µM (active) | 0.288 µM (active) | 0.0387 µM (active) | 0.336 µM (active) | 0.488 µM | 0.333 µM (active) | 0.307 µM (active) | 0.0548 µM (active) | 0.063 µM (active) | 0.169 µM (active) | 0.564 µM (active) | 0.0735 µM (active)
5 | [O-][n+]1onc2c1CCC(=N\O)/C2=N/Nc1ccccc1 | > 100 µM (inactive) | > 100 µM (inactive) | > 100 µM (inactive) |  | > 100 µM (inactive) | > 100 µM (inactive) | > 100 µM (inactive) | > 100 µM (inactive) | > 100 µM (inactive) |  | > 100 µM (inactive) | > 100 µM | > 100 µM (inactive) | > 100 µM (inactive) | > 100 µM (inactive) | > 100 µM (inactive) | > 100 µM (inactive) | > 100 µM (inactive) | 
6 | CC(C)(C)c1ccc(OCCOCCOc2ccc(C(C)(C)C)cc2S(=O)(=O)Nc2ccc([N+](=O)[O-])cc2)c(S(=O)(=O)Nc2ccc([N+](=O)[O-])cc2)c1 | 8.28 µM (inactive) | 42.1 µM (inactive) | 7.53 µM (inactive) | 4.07 µM (inactive) | 45.6 µM (inactive) |  | 12.7 µM (inactive) | 33.7 µM (inactive) | 8.47 µM (inactive) | 7.28 µM (inactive) | 56.6 µM (inactive) | 7.69 µM | 4.45 µM (inactive) | 8.85 µM (inactive) |  | 19.2 µM (inactive) | 6.17 µM (inactive) | 5.64 µM (inactive) | 
7 | Cc1cccc(/N=N/c2ccc(/N=N/c3c(O)ccc4ccccc34)cc2C)c1 | 41.7 µM (inactive) | > 100 µM (inactive) | > 100 µM (inactive) | 32.2 µM (inactive) | 83.6 µM (inactive) | 33.9 µM (inactive) | > 100 µM (inactive) | > 100 µM (inactive) | 44.2 µM (inactive) | 54.2 µM (inactive) | 0.144 µM (active) | > 100 µM | > 100 µM (inactive) | > 100 µM (inactive) | 14.2 µM (inactive) | 27 µM (inactive) | > 100 µM (inactive) | > 100 µM (inactive) | 
8 | CN1C(C(=O)Nc2ccccn2)=C(O)c2ccccc2S1(=O)=O [PIROXICAM] | > 100 µM (inactive) | > 100 µM (inactive) | > 100 µM (inactive) |  | > 100 µM (inactive) |  | > 100 µM (inactive) | > 100 µM (inactive) | > 100 µM (inactive) | > 100 µM (inactive) | > 100 µM (inactive) | > 100 µM | > 100 µM (inactive) |  | > 100 µM (inactive) | > 100 µM (inactive) | > 100 µM (inactive) | > 100 µM (inactive) | > 100 µM (inactive)
9 | O=c1[nH]c2c(c(=O)[nH]1)SC(c1ccccc1)C2 (centres undefined) | > 100 µM (inactive) | > 100 µM (inactive) | > 100 µM (inactive) | > 100 µM (inactive) | > 100 µM (inactive) | > 100 µM (inactive) | > 100 µM (inactive) | > 100 µM (inactive) | > 100 µM (inactive) | > 100 µM (inactive) | 86.9 µM (inactive) | > 100 µM | > 100 µM (inactive) | > 100 µM (inactive) | > 100 µM (inactive) | > 100 µM (inactive) | > 100 µM (inactive) |  | 
10 | CCc1n[nH]c(=O)n1/N=C(\C)c1ccccc1 | > 100 µM (inactive) | > 100 µM (inactive) | > 100 µM (inactive) |  | > 100 µM (inactive) | > 100 µM (inactive) | > 100 µM (inactive) | > 100 µM (inactive) | > 100 µM (inactive) | > 100 µM (inactive) |  | > 100 µM | > 100 µM (inactive) |  | > 100 µM (inactive) | > 100 µM (inactive) | > 100 µM (inactive) | > 100 µM (inactive) | > 100 µM (inactive)
11 | O=C(O)c1ccc(/N=C(\C(=N\c2ccc(C(=O)O)cc2)c2ccccc2)c2ccccc2)cc1 | > 100 µM (inactive) | > 100 µM (inactive) | > 100 µM (inactive) |  | > 100 µM (inactive) | > 100 µM (inactive) | > 100 µM (inactive) | > 100 µM (inactive) | > 100 µM (inactive) | > 100 µM (inactive) | > 100 µM (inactive) | > 100 µM | > 100 µM (inactive) | > 100 µM (inactive) |  | > 100 µM (inactive) |  | > 100 µM (inactive) | > 100 µM (inactive)
12 | CCCCCCCCCC(=O)NC(CCC(=O)N(CCNC(=O)c1nc(-c2ccccc2)oc1-c1ccccc1)Cc1ccccc1)C(=O)O (centres undefined) | 15 µM (inactive) | 23.4 µM (inactive) | 19.7 µM (inactive) | 17.6 µM (inactive) | 17.7 µM (inactive) |  | 17.9 µM (inactive) | 20.5 µM (inactive) | 18.1 µM (inactive) | 18.9 µM (inactive) | 14.5 µM (inactive) | 16 µM | 15.2 µM (inactive) | 38.1 µM (inactive) | 18.5 µM (inactive) | 17.6 µM (inactive) | 16.2 µM (inactive) | 22.4 µM (inactive) | 20.4 µM (inactive)
13 | CN1CCC(O)(C(C)(C)C)CC1 | > 100 µM (inactive) | > 100 µM (inactive) | > 100 µM (inactive) |  | > 100 µM (inactive) | > 100 µM (inactive) | > 100 µM (inactive) | > 100 µM (inactive) | > 100 µM (inactive) | > 100 µM (inactive) | > 100 µM (inactive) | > 100 µM | > 100 µM (inactive) | > 100 µM (inactive) |  | > 100 µM (inactive) | > 100 µM (inactive) | > 100 µM (inactive) | > 100 µM (inactive)
14 | C/C=C\C(CC(=O)NCCc1cn(C(=O)OCc2ccccc2)c2ccccc12)CC(=O)OC (centres undefined) | 86.7 µM (inactive) | 52.8 µM (inactive) | 62.5 µM (inactive) | 69 µM (inactive) | > 100 µM (inactive) | > 100 µM (inactive) | 89.5 µM (inactive) | 35.9 µM (inactive) | 57 µM (inactive) | > 100 µM (inactive) | > 100 µM (inactive) | > 100 µM | 50.8 µM (inactive) | > 100 µM (inactive) | 48.8 µM (inactive) | 56.4 µM (inactive) | 34.9 µM (inactive) | > 100 µM (inactive) | 
15 | CC(C)[Si](OC12CCC(CC1O)CC2CO)(C(C)C)C(C)C (centres undefined) | 15.1 µM (inactive) | 13.7 µM (inactive) | 12.7 µM (inactive) | 12.1 µM (inactive) | 10.5 µM (inactive) |  | 12.8 µM (inactive) | 11.5 µM (inactive) | 12.2 µM (inactive) | 12.6 µM (inactive) | 13.9 µM (inactive) | 14.1 µM | 13.9 µM (inactive) | 12.6 µM (inactive) |  |  | 18.3 µM (inactive) | 14.4 µM (inactive) | 9.77 µM (inactive)
16 | FC(F)(F)c1cc(Cl)cnc1N/N=C(/c1ccccc1)c1ccccn1 | 0.719 µM (active) | 3.04 µM (inactive) | 1.85 µM (inactive) | 1.81 µM (inactive) | 2.84 µM (inactive) | 0.422 µM (active) | 2.55 µM (inactive) | 6.67 µM (inactive) | 2.16 µM (inactive) | 3.62 µM (inactive) | 0.298 µM (active) | 0.74 µM | 2.94 µM (inactive) | 3.68 µM (inactive) | 1.57 µM (inactive) | 9.66 µM (inactive) | 3.15 µM (inactive) |  | 
17 | Cc1ccc(-n2cc(-c3ccc(Cl)cc3)c3c(NN)ncnc32)cc1 | 1.38 µM (inactive) | 3.97 µM (inactive) | 10.7 µM (inactive) | 2.97 µM (inactive) | 2.55 µM (inactive) |  | 3.04 µM (inactive) | 1.73 µM (inactive) | 3.36 µM (inactive) | 1.82 µM (inactive) | 1.39 µM (inactive) | 4.4 µM | 3.82 µM (inactive) | 3.4 µM (inactive) | 3.58 µM (inactive) | 2.75 µM (inactive) | 1.57 µM (inactive) | 12.4 µM (inactive) | 2.55 µM (inactive)
